Data taken from US9585933B2, “Therapeutic use of peptide inhibitors of NADPH oxidase; aerosolization as a delivery mechanism” (University of Pittsburgh—Of the Commonwealth System of …, priority 2011, dated 2017).
Where no end group is shown, it is not given here.

Target: T1, Nox1 oxidase (COS-Nox1 lysate: hNox1, p22phox, NOXO1, NOXA1) (Homo sapiens, UniProt Q9Y5S8)
T1 construct: expressed in transfected cells; host or cells: COS-22 cells (COS 7 with p22phox), transiently cotransfected; cell lysate used
T1 sequence (Q9Y5S8 1-564): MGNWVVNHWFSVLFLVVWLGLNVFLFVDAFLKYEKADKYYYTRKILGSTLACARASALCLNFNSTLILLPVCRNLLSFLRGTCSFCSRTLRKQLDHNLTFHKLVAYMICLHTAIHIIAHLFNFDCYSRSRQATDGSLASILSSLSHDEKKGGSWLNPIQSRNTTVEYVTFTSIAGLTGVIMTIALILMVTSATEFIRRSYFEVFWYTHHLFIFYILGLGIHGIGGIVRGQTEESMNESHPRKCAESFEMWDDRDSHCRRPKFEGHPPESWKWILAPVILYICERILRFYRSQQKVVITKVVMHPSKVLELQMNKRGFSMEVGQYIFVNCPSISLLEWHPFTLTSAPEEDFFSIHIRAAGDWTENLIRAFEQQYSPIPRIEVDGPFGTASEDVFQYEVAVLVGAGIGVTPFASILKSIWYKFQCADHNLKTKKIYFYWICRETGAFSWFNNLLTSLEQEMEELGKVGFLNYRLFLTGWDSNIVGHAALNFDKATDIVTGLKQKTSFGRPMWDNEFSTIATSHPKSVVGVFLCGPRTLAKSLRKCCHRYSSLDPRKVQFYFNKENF
T1 sequence (P13498 2-195 partner limits assumed): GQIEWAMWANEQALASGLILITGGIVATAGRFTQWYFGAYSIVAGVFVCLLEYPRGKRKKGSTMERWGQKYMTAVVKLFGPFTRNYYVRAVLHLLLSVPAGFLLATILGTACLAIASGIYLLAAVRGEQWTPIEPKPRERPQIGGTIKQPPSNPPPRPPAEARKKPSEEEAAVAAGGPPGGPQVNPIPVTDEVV
Assay: Cell-free SOD-inhibitable cytochrome c reduction assay, O2- production in COS-Nox1 lysates
Format: biochemical
Procedure: To test this hypothesis, the inhibitory activity of Nox2ds was assessed in cell-free assays using reconstituted systems expressing either Nox1, 2 or 4 oxidase. Nox 2 oxidase was recapitulated by stably transfecting COS 7 cells with Nox2, p22phox, p47phox, and p67phox (aka COS-Nox2). Nox1 oxidase was obtained by transfecting COS 7 cells with Nox1, p22phox, NOXO1 and NOXA1 (COS-Nox1), and Nox 4 oxidase was regenerated by transfection of COS 7 cells with Nox4 and p22phox. […] Our new data support selectivity of Nox2ds peptide in differentiating the contribution of Nox2 vs. Nox1 and Nox4 NADPH oxidase and its potential clinical use in ameliorating cardiopulmonary diseases.
Cell transfection was carried out using Lipofectamine LTX and Plus reagent (Invitrogen), according to the manufacturer's instructions. COS-22 cells were transiently cotransfected with pcDNA 3.1-hNox1, pCMVsport 6-hNOXA1, and pcDNA3.1-hNoxO1 (COS-Nox1/NOXO1/NOXA1 cells). Cells were used 24 h after transfection. […]
Superoxide (O2^−) production was measured in COS-Nox1 and COS-Nox2 lysates by determining the rate of O2^− dismutase (SOD) inhibitable cytochrome c reduction and by electron paramagnetic resonance (EPR). […]
O2^− production was initiated by the addition of NADPH and measured by the SOD-inhibitable cytochrome c reduction for 10 min.

Q: CSTRVRRQL-NH2 [Nox2ds, CSTRVRRQL] was tested. Which “inhibition of Nox1-derived O2- production (in words)” value did it give?
A: did not inhibit

Q: What about the “rate of Nox1-derived O2- production, cytochrome c reduction” value (10 μM peptide, 0 μM control 0.97±0.14) of the same substance?
A: 0.765±0.19 nmol O2^−/min/10^7 cell equivalents
